According to paper PMC12670426 (Journal of Medicinal Chemistry, 2025):

Experiments:
[1] = Plasma stability assay, rat plasma; assay type: in vitro ADME; conditions: 37 °C
Method: Test compounds (10 μM) were incubated with mouse, rat, or human pooled plasma from 50 donors (Biowest) at 37 °C for 20, 60, and 120 min. Reactions were terminated by adding four volumes of ice-cold methanol, followed by vigorous mixing. Samples were kept at −20 °C for 30 min and then stored at 4 °C overnight. The next day, samples were centrifuged, and supernatants were diluted with four volumes of 30% methanol in water. Zero time points were prepared by adding ice-cold methanol to the compound prior to the addition of plasma. Samples were then analyzed on an Echo MS system (SCIEX) using multiple reaction monitoring (MRM). The only exception was compound 3af, which was analyzed by LC–MS/MS (SCIEX 6500 triple quadrupole) due to its weak ionization in Echo-MS.

Cytotoxicity assay, THP1 = assay type: cell-based; conditions: human, THP1 cells, viability dye, flow cytometry
Method: To evaluate in vitro cytotoxicity and support its potential application in inflammatory and fibrotic disease models, the following panel of cell lines, representing the relevant biological systems, was used: HEK293, HepG2, THP1, Jurkat E6.1, and LX2. HEK293, HepG2, and Jurkat E6.1 cells were seeded at 400,000 cells/mL, THP1 cells at 500,000 cells/mL, and LX2 cells at 200,000 cells/mL in 96-well plates (cell culture-treated, VWR) in 100 μL/well. Cells were treated with the tested compounds in a serial dilution (300, 100, 33.3, 11.1, and 3.7 μM) for 24 h. Untreated cells served as negative controls to establish the baseline viability threshold. Cell viability was assessed using a viability dye (Zombie Violet Fixable Viability Kit, BioLegend) following the manufacturer’s instructions and analyzed by flow cytometry (see below).
Cells or beads from screening assays prepared for flow cytometry were analyzed by the CytoFlex S instrument (Beckman Coulter). Data acquisition was performed using CytExpert software (v2.5, Beckman Coulter). Debris was excluded by forward and side scatter gating, followed by doublet exclusion. Data were analyzed using FlowJo software (v10, BD Biosciences).

CC(=O)N(c1cc(C(=O)O)cc2[nH]ccc12)[C@@H]1O[C@H](CO)[C@@H](S[C@@H]2O[C@H](CO)[C@H](O)[C@H](n3cc(-c4cccc(F)c4)nn3)[C@H]2O)[C@H](O)[C@H]1O [Compound 11, N-[4-S-(3-Deoxy-3-(4-(3-fluorophenyl)-1H-1,2,3-triazol-1-yl)-β-D-galactopyranosyl)-4-thio-β-D-glucopyranosyl]-N-(6-carboxy-1H-indol-4-yl)acetamide]
remaining at 2 h, 10 μM [1]: 87 ± 6% | CC50 at 24 h (Cytotoxicity assay, THP1): > 300 µM
